Experimental findings from patent US20210387983A1, “CRYSTALLINE ALK5 INHIBITORS AND USES THEREOF” (THERAVANCE BIOPHARMA R&D IP, LLC, priority 2020, published 2021) are described below.

Data set [1] in a line: Lung PK/PD: PK study after oral aspiration. Format: in vivo. Conditions: C57bl/6n, mouse, lung / plasma, mice, 3% glycerol in PBS pH=4, read-out: (lung AUC0-4):(plasma AUC0-4) ratio. The protocol: C57bl/6n mice were acclimated for at least 3 days before use. On the day of the experiment, animals were grouped into sample sizes of 5 (n=10 for the TGF-β stimulated group). The compound of Formula I (formulated in 3% glycerol in PBS; pH=4) was pre-treated via oral aspiration (OA; animals are forced to aspirate solution into the lungs by covering their nose). All oral aspirations were performed using a 50 μL dosing volume and accompanied by the appropriate vehicle control groups. Following compound OA treatment, the animals were returned to their home cages and monitored. Compound pre-treatment occurred 4 hours prior to harvest for screening and dose-response studies; duration studies had variable compound pre-treatment times. One hour prior to harvest, animals were challenged via oral aspiration a second time with PBS vehicle or recombinant human TGF-β1 protein (0.01 μg per animal dissolved in 1 part 4 mM HCl and 2 parts 3% glycerol in PBS). Five minutes prior to harvest, animals were deeply anesthetized under isoflurane and euthanized via cervical dislocation. […]
Left lung lobes were harvested immediately after BALF collection. […] Following collection of the supernatant, a total protein quantification assay (Bradford) was performed to normalize the concentrations of all samples. […]
Plasma, lung and macrophage drug concentrations were quantified. […]

For another data set, the system named is SMAD3 phosphorylation. In words: Cardiac PK/PD: systemic target engagement, pSMAD3/tSMAD3 in heart by Meso-Scale Discovery. Format: in vivo, C57bl/6n mice. The following applies: mice, oral aspiration 2 or 4 hours prior to harvest; TGF-β1 i.v. challenge; heart samples. The protocol: C57bl/6n mice were acclimated for at least 3 days before use. On the day of the experiment, animals were grouped into sample sizes of 5-10. Test compounds were pre-treated via oral aspiration (OA; animals are forced to aspirate solution into the lungs by covering their nose). All oral aspirations were performed using a 50 μL dosing volume and accompanied by a vehicle control group (3% glycerol in PBS, pH=4). Following compound OA treatment, the animals were returned to their home cages and monitored. Compound pre-treatment occurred either 2 or 4 hours prior to harvest. One hour prior to harvest, animals were challenged via tail-vein intravenous injection with PBS vehicle or recombinant human TGF-β1 protein (1 μg per animal dissolved in 1 part 4 mM HCl and 2 parts 3% glycerol in PBS). Five minutes prior to harvest, animals were deeply anesthetized under isoflurane and euthanized via cervical dislocation. Plasma, left lung lobes and whole hearts were collected during harvest.
Blood plasma was harvested as described above in the Lung PK/PD experiment. Whole hearts were processed in the same manners as left lung lobes in the Lung PK/PD experiment. Left lung lobes were homogenized in 500 μL of water and submitted for BA Analysis.
Heart samples were processed using MSD in the same manner as the left lung lobes above. […] Plasma, lung and heart drug concentrations were quantified.

In data set [2] the test system is DSS-induced intestinal fibrosis. Nature of the data set: Prophylactic study in murine DSS-induced intestinal fibrosis model. In kind it is in vivo, C57BL/6J mice. Conditions: oral gavage starting on day one of DSS administration; sacrifice 9 weeks. The protocol:
The compound of Formula I is expected to slow, halt or reverse the progression of intestinal fibrosis in a murine colitis model. Six to 8-week old male C57BL/6J mice are tagged and weighed. The drinking water of the animals is treated with 2.5% dextran sulfate sodium (DSS) for 7 days to induce acute colitis, followed by 2 days of normal drinking water. Three, 3-week cycles of 2.5% DSS treatment (1 week of 2.5% DSS in water; 2 weeks of normal water) are then completed to induce intestinal fibrosis. Starting on day one of DSS administration, mice are treated with either vehicle control or the compound of Formula I at an appropriate amount and frequency via oral gavage (e.g., once daily). The animals are sacrificed 9 weeks after the first DSS administration, then distal, mid and proximal sections of the colon harvested for histologic analysis, RNA extraction and cytokine measurement.

Bounds are passed on as bounds.

On to `C[C@@H]1CN(CCNc2cnc3ccc(-c4nc[nH]c4-c4cc(Cl)ccc4F)nc3c2)C[C@H](C)N1` [compound of Formula I, 6-(5-(5-chloro-2-fluorophenyl)-1H-imidazol-4-yl)-N-(2-((3S,5R)-3,5-dimethylpiperazin-1-yl)ethyl)-1,5-naphthyridin-3-amine], for which, in data set [1], the Kp was > 75. For the same compound, the “systemic target engagement, as measured by SMAD3 phosphorylation inhibition” value with SMAD3 phosphorylation is “minimal target engagement systemically”. The intestinal fibrosis result in data set [2] is reported as “slow or prevent intestinal fibrosis”.
